“And” between values parts separate entries of the source, which are not always exact repeats. Equal entries are not always repeated.
Experiments:
CYP2E1 = CYP2E1 (Homo sapiens, UniProt P05181); test: Metabolism of metaxalone by expressed recombinant human CYP2E1 (Example 1); details: 30 min
Description: Commercially available microsomes from baculovirus-infected insect cells containing singly-expressed recombinant wild-type (*1 allele) human CYP enzymes and cDNA-expressed human cytochrome p450 oxidoreductase [BD SUPERSOMES Enzymes; BD Biosciences Discovery Labware (Woburn, Mass.)] were used.
After a 5-minute pre-incubation, an NADPH regenerating system (NRS) was added to the incubation mixtures to initiate reactions, with a final incubation volume of 0.5 mL. Incubations were continued for 30 minutes, and then terminated, except for those for CYP2C19, which were incubated for 36 minutes prior to termination.
Matrix controls were performed to determine the background signal from the matrix components (microsomes (10 pmol p450), 01N Tris buffer, NRS, and 1% methanol). […] After a 5-minute pre-incubation, 2% sodium bicarbonate solution was added to the incubation mixtures. Incubation was for 30 minutes at a final volume of 0.5 mL. Matrix and metabolic negative controls were terminated by adding an equal volume of methanol. […] Analysis of samples was subsequent to storage at −70° C.

CYP2C19 = CYP2C19 (Homo sapiens, UniProt P33261); test: in vitro; details: pooled human liver microsomes, probe S-mephenytoin 50 μM (to 4′-hydroxy mephenytoin);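 also: CYP2C19 incubations ran for 30 minutes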
Description: Microsomes were prepared by differential centrifugation of liver homogenates pooled from at least ten human donors.
After a 5 minute preincubation, NADPH regenerating system (NRS) was added to initiate the reaction. CYP2A6 and CYP3A4 incubations were for 10 minutes. All other incubations were for 30 minutes.
Incubations for CYP2C8 were terminated by adding 1.0 mL of ACN, while all other incubations were terminated by adding 1.0 mL of methanol.
Vehicle control experiments were performed to establish a baseline value for enzyme activity. […] Four replicates were performed.
Two replicates were performed. […] No interference was detected in any of the metabolite assay methods used.

human CYP1A2 = biological target: T1, human CYP1A2 (Homo sapiens, UniProt P05177); test: Metabolism of metaxalone by expressed recombinant human CYP1A2 at 5 or 20 pmol (Example 4, LC-MS/MS); details: for percent turnover / % Turnover Mean / [metaxalone] Mean / % Turnover % / [metaxalone]: 60 min; for % Turnover % / [metaxalone]: single replicates, listed as Metaxalone
T1 sequence (P05177 2-516 limits assumed): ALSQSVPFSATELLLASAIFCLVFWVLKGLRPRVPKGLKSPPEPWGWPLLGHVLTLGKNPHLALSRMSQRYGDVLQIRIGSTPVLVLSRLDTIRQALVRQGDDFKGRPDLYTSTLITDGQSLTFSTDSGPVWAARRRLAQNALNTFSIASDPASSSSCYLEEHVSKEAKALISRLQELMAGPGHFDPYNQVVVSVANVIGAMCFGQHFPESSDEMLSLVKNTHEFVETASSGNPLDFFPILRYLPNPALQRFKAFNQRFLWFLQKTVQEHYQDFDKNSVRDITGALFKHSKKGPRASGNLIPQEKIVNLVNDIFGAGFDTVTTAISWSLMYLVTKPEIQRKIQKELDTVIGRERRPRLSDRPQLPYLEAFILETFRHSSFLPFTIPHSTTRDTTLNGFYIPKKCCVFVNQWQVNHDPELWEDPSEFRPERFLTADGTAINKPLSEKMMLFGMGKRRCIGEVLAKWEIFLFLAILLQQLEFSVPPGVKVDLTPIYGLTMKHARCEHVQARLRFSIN

CYP2D6 = CYP2D6 (Homo sapiens, UniProt P10635); test: Chemical inhibition of metaxalone turnover in human liver microsomes, CYP2D6 inhibitor quinidine; details: 7.5 μM metaxalone; 1 mg/mL HLM; 60 min; with quinidine; single replicates
Description: (§1) Human liver microsomes pooled from 15 individuals (male and female) (Pool HMMC-PL020; CellzDirect, Inc., In Vitro Products and Services Division) were used in some experiments of this study.
(§2) % Turnover=100−{[TA(final)]/[mean of TA(0 min)]}×100,
(§3) % Inhibition of Turnover=100{1−([TA(0 min)]−[TA(final-inhibitor)])/([TA(0 min)]−[TA(final-no inhibitor)])}.
(§4) The inhibitors or vehicle control were incubated with the pooled human liver microsomes (1 mg/mL) and NADPH (1 mM) in 0.1 M phosphate buffer, pH 7.4. […] Incubations were conducted in triplicate and terminated by addition of organic solvent. Samples were extracted and analyzed by LC-MS/MS as described above.

CYP2C9 = CYP2C9 (Homo sapiens, UniProt P11712); test: Induction/inhibition of CYP2C9 activity in cryopreserved human hepatocytes (tolbutamide)
Excerpt: Hepatocytes from three human donors were obtained from a cryopreserved hepatocyte bank (In Vitro Technologies, Inc., USA). After thawing, viable hepatocytes were transferred to collagen-coated 48-well plates for attachment in plating medium (DMEM stock (Dulbecco's modified Eagle's medium, supplemented with bovine serum albumin, fructose, N-(2-hydroxyethyl)piperazine-N′-(2-ethanesulfonate) (HEPES), and sodium bicarbonate), supplemented with antibiotics, bovine serum, hydrocortisone, insulin and minimum essential medium (MEM) nonessential amino acids). After attachment to the collagen matrix, plating medium was replaced with sandwich medium (plating medium supplemented with VITROGEN) and incubated until use.
The supplemented KHB was replaced with 150 μL supplemented KHB containing the appropriate isoform-selective substrate and incubated for 4 hrs prior to termination by adding 150 μL ice-cold methanol, except for the CYP2C8 incubations which were terminated by adding 150 μL acetonitrile.
All substrates were dissolved in acetonitrile.
Replicate trials and controls were performed. […] Additionally, reference control samples were included to evaluate inducibility of CYP2B6, CYP2C9, and CYP2C19 in the test system.
Mean specific activity values with associated p-values≦0.05 were deemed to be statistically significant.

CYP2A6 = test: Chemical inhibition of metaxalone turnover in human liver microsomes, CYP2A6 inhibitor pilocarpine; details: 1 mg/mL HLM, 60 min, with pilocarpine; for % Turnover / % inhibition of turnover / Conc.: single replicates
Description: as §1, §2, §3, §4

[1] = 0.75 μM metaxalone, 20 pmol cyp

Chain of CYP2C9 (P11712 whole entry): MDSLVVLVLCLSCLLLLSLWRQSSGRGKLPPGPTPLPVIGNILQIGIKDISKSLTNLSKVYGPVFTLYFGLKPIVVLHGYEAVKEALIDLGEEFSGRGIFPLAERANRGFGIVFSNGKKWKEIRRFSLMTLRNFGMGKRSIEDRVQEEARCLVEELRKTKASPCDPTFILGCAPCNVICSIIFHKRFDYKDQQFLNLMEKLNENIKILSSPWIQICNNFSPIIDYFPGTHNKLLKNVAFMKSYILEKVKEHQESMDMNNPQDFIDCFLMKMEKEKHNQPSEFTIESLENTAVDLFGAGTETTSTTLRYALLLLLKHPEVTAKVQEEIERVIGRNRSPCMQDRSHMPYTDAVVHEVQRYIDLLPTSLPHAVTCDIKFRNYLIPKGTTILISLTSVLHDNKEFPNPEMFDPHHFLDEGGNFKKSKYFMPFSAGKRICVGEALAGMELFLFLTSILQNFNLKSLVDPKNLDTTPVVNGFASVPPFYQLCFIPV
Chain of CYP2E1 (P05181 whole entry): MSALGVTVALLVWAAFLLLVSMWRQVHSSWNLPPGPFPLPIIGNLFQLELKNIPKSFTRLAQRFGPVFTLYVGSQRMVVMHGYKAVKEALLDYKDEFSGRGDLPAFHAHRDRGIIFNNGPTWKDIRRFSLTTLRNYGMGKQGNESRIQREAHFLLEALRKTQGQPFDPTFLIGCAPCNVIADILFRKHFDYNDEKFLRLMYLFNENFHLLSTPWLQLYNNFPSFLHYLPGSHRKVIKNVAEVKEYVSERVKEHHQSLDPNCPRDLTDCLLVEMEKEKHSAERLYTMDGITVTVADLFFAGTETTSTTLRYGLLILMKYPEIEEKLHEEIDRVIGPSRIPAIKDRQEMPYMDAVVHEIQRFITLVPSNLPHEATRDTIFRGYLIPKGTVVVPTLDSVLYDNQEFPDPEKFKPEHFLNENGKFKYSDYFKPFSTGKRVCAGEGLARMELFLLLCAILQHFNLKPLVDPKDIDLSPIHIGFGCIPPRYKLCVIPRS
Chain of CYP2D6 (P10635 whole entry): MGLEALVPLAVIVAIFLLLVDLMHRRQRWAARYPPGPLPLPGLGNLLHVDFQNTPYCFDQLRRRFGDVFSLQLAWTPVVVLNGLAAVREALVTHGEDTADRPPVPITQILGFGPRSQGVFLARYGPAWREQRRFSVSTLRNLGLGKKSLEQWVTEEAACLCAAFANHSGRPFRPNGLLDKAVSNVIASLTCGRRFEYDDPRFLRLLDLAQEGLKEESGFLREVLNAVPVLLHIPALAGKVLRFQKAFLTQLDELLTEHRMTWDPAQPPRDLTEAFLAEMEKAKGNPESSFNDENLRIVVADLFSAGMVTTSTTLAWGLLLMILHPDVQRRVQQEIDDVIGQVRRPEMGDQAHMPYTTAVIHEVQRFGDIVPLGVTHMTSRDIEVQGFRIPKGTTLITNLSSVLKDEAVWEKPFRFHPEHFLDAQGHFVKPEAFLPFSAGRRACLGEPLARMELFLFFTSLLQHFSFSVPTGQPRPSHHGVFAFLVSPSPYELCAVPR
Chain of CYP2C19 (P33261 whole entry): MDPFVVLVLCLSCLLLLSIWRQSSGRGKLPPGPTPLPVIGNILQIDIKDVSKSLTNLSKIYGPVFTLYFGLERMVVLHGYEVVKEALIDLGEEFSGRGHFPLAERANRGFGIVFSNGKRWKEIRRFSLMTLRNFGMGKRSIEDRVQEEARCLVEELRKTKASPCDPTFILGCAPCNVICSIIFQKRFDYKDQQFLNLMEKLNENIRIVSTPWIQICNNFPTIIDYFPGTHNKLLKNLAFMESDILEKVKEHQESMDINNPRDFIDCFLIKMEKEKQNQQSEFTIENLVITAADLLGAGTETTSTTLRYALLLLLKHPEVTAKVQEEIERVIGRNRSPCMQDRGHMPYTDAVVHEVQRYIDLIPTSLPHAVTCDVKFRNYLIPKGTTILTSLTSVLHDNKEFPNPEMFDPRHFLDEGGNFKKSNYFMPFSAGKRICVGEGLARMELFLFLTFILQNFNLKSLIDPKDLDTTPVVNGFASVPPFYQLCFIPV

Cc1cc(C)cc(OCC2CNC(=O)O2)c1 (centres unmarked) [metaxalone, 5-[(3,5-dimethylphenoxy)methyl]-2-oxazolidinone]
Metaxalone Present Adjusted Individual (CYP2E1; metaxalone 0.5 μM): 0.357 µM and 0.345 µM and 0.353 µM
Metaxalone Present Adjusted Mean ± SD (CYP2E1; metaxalone 0.5 μM): 0.352 ± 0.00648 µM
Metaxalone Present Raw (CYP2E1; metaxalone 0.5 μM): 0.1787 µM and 0.1724 µM and 0.1766 µM
Percent of Metabolic Negative Control Individual (CYP2E1; metaxalone 0.5 μM): 101% and 97.0% and 99.4%
Percent of Metabolic Negative Control Mean ± SD (CYP2E1; metaxalone 0.5 μM): 99.0 ± 1.83%
Metaxalone Present Adjusted Individual (CYP2E1; metaxalone 2.5 μM): 1.77 μM and 1.76 μM (2×)
Metaxalone Present Adjusted Mean ± SD (CYP2E1; metaxalone 2.5 μM): 1.76 ± 0.00318 µM
Metaxalone Present Raw (CYP2E1; metaxalone 2.5 μM): 0.883 µM and 0.8799 µM and 0.8821 µM
Percent of Metabolic Negative Control Individual (CYP2E1; metaxalone 2.5 μM): 104%
Percent of Metabolic Negative Control Mean ± SD (CYP2E1; metaxalone 2.5 μM): 104 ± 0.188%
Metaxalone Present Adjusted Individual (CYP2E1; metaxalone 25 μM): 17.5 µM and 22.3 µM and 17.8 µM
Metaxalone Present Adjusted Mean ± SD (CYP2E1; metaxalone 25 μM): 19.2 ± 2.71 µM
Metaxalone Present Raw (CYP2E1; metaxalone 25 μM): 8.732 µM and 11.15 µM and 8.879 µM
Percent of Metabolic Negative Control Individual (CYP2E1; metaxalone 25 μM): 98.2% and 125% and 99.9%
Percent of Metabolic Negative Control Mean ± SD (CYP2E1; metaxalone 25 μM): 108 ± 15.3%
inhibition at 30 min, 100 μM (CYP2C19): 35.1%
percent turnover (human CYP1A2; 0.75 μM metaxalone, 5 pmol CYP450): 9.2%
% Turnover Mean (human CYP1A2; 0.75 μM metaxalone, 5 pmol cyp): 9.2%
[metaxalone] Mean (human CYP1A2; 0.75 μM metaxalone, 5 pmol cyp): 0.719 µM
% Turnover % (human CYP1A2; 0.75 μM metaxalone, 5 pmol cyp): 17.5% and 6.2% and 3.9%
[metaxalone] (human CYP1A2; 0.75 μM metaxalone, 5 pmol cyp): 0.653 µM and 0.742 µM and 0.761 µM
percent turnover (human CYP1A2; 0.75 μM metaxalone, 20 pmol CYP450): 34.8%
% Turnover Mean (human CYP1A2; [1]): 34.8%
[metaxalone] Mean (human CYP1A2; [1]): 0.516 µM
% Turnover % (human CYP1A2; [1]): 31.7% and 35.5% and 37.3%
[metaxalone] (human CYP1A2; [1]): 0.540 µM and 0.511 µM and 0.496 µM
percent turnover (human CYP1A2; 7.5 μM metaxalone, 5 pmol CYP450): 10.0%
% Turnover Mean (human CYP1A2; 7.5 μM metaxalone, 5 pmol cyp): 10.0%
[metaxalone] Mean (human CYP1A2; 7.5 μM metaxalone, 5 pmol cyp): 7.60 µM
% Turnover % (human CYP1A2; 7.5 μM metaxalone, 5 pmol cyp): 14.3% and 5.7%
[metaxalone] (human CYP1A2; 7.5 μM metaxalone, 5 pmol cyp): 7.24 µM and 7.97 µM
percent turnover (human CYP1A2; 7.5 μM metaxalone, 20 pmol CYP450): 30.4%
% Turnover Mean (human CYP1A2; 7.5 μM metaxalone, 20 pmol cyp): 30.4%
[metaxalone] Mean (human CYP1A2; 7.5 μM metaxalone, 20 pmol cyp): 5.88 µM
% Turnover % (human CYP1A2; 7.5 μM metaxalone, 20 pmol cyp): 33.3% and 32.3% and 25.5%
[metaxalone] (human CYP1A2; 7.5 μM metaxalone, 20 pmol cyp): 5.63 µM and 5.72 µM and 6.29 µM
Substrate (human CYP1A2; CYP isozyme 1A2, summary of studies): +
% Turnover (CYP2D6): 11.1%
Inducer/Inhibitor (CYP2C9): −
Percent of VC (CYP2C9; Donor 1, Metaxalone 0.4 μM): 108%
Percent of VC (CYP2C9; Donor 1, Metaxalone 4 μM): 100%
Percent of VC (CYP2C9; Donor 1, Metaxalone 40 μM): <73.2%
Percent of VC (CYP2C9; Donor 2, Metaxalone 4 μM): 92.9%
Percent of VC (CYP2C9; Donor 2, Metaxalone 40 μM): 60.4%
Percent of VC (CYP2C9; Donor 3, Metaxalone 0.4 μM): 111%
Percent of VC (CYP2C9; Donor 3, Metaxalone 40 μM): 78.4%
Specific Activity Mean ± SD (CYP2C9; Donor 3, Metaxalone 40 μM): 0.127 ± 0.005 pmol/min/million cells
Specific Activity Mean ± SD (CYP2C9; human, 48 h, 0.4 µM): 0.179 ± 0.0111 pmol/min/million cells
Specific Activity Mean ± SD (CYP2C9; human, 48 h, 4 µM): 0.167 ± 0.0210 pmol/min/million cells
effect on CYP2C9 activity (CYP2C9; human, hepatocytes, 48 h, 40 μM): significantly reduced CYP2C9 activity
% Turnover Mean (CYP2A6; 0.75 μM metaxalone): 16.0%
% inhibition of turnover Mean (CYP2A6; 0.75 μM metaxalone): 46.2%
Mean Conc. (CYP2A6; 0.75 μM metaxalone): 0.648 µM
% Turnover (CYP2A6; 0.75 μM metaxalone): 13.9% and 14.7% and 19.4%
% inhibition of turnover (CYP2A6; 0.75 μM metaxalone): 53.2% and 50.6% and 34.9%
Conc. (CYP2A6; 0.75 μM metaxalone): 0.664 µM and 0.658 µM and 0.622 µM
% Turnover Mean (CYP2A6; 7.5 μM metaxalone): 12.1%
% inhibition of turnover Mean (CYP2A6; 7.5 μM metaxalone): 50.8%
Mean Conc. (CYP2A6; 7.5 μM metaxalone): 7.48 µM
% Turnover (CYP2A6; 7.5 μM metaxalone): 8.8% and 14.5% and 13.0%
% inhibition of turnover (CYP2A6; 7.5 μM metaxalone): 64.2% and 41.2% and 47.1%
Conc. (CYP2A6; 7.5 μM metaxalone): 7.76 µM and 7.28 µM and 7.41 µM
